Our source for the surviving fraction values is the supplement of paper PMC6045584.

Compound in assay [1]: COc1cc2ncnc(Nc3ccc(F)c(Cl)c3)c2cc1NC(=O)/C=C/CN1CCCCC1
Put plainly: surviving fraction relative to DMSO-only wells; higher = less growth inhibition. The settings on record: exposure time: 5 days. The method in brief: (§1)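 After seeding at 250–500 cells per well in 384-well plates and a 24-hour wait, log-phase tumour cell lines were exposed without interruption for five days to inhibitors at 0.5, 1, 5, 10, 50, 100, 500 and 1000 nM. CellTiter-Glo luminescence was recorded after 10 minutes at room temperature. Viability is reported as surviving fraction, the luminescence normalised to the median of DMSO-only wells.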

Compound in the next assay: Oc1nc(-c2ccc(C(F)(F)F)cc2)nc2c1CSCC2 [XAV-939]
The assay is described as above. Particulars: exposure time: 5 days. The method in brief: as §1

± gives the standard deviation of the averaged measurements.

For HCC70 BREAST, the surviving fraction worked out at 1.11 ± 0.059 in assay [1] (0.5 nM); 1.06 ± 0.11 in assay [1] (1 nM); 0.926 ± 0.074 in assay [1] (5 nM); 0.957 ± 0.11 in assay [1] (10 nM); 0.956 ± 0.11 in assay [1] (50 nM); 0.975 ± 0.049 in assay [1] (100 nM). Moreover, the surviving fraction is 0.897 ± 0.091 in assay [1] (500 nM); 0.842 ± 0.031 in assay [1] (1000 nM); 1.02 ± 0.083 in the assay with XAV-939 (0.5 nM); 1.09 ± 0.11 with XAV-939 (1 nM); 1.07 ± 0.026 with XAV-939 (5 nM); 1.13 ± 0.067 with XAV-939 (10 nM). Also, the surviving fraction with XAV-939 (50 nM) was 1.13 ± 0.029; in the assay with XAV-939 (100 nM) it was 1.12 ± 0.11; in the assay with XAV-939 (500 nM) it was 0.871 ± 0.091; in the assay with XAV-939 (1000 nM), 0.829 ± 0.12.

In the case of G292 BONE, the surviving fraction in assay [1] (0.5 nM) is 1.03 ± 0.021; in assay [1] (1 nM), 0.979 ± 0.054; in assay [1] (5 nM) it was 1.05 ± 0.031; in assay [1] (10 nM) it was 1.02 ± 0.03; in assay [1] (50 nM), 0.981 ± 0.052; in assay [1] (100 nM), 0.9292 ± 0.0084. Moreover, the surviving fraction in assay [1] (500 nM) was found to be 0.693 ± 0.029; in assay [1] (1000 nM), 0.424 ± 0.013; with XAV-939 (0.5 nM) it was 0.788 ± 0.26; in the assay with XAV-939 (1 nM) it was 0.995 ± 0.045; with XAV-939 (5 nM), 0.96 ± 0.043; in the assay with XAV-939 (10 nM), 0.963 ± 0.066. The surviving fraction with XAV-939 (50 nM) stood at 0.818 ± 0.27; with XAV-939 (100 nM) it was 0.965 ± 0.04; in the assay with XAV-939 (500 nM) it was 0.917 ± 0.027; with XAV-939 (1000 nM), 0.874 ± 0.046.

With HCC38 BREAST, the surviving fraction in assay [1] (0.5 nM) was 1.02 ± 0.082; in assay [1] (1 nM), 1.21 ± 0.21; in assay [1] (5 nM), 1.16 ± 0.044; in assay [1] (10 nM), 1.22 ± 0.26; in assay [1] (50 nM), 0.954 ± 0.26; in assay [1] (100 nM), 1.07 ± 0.046. For the same test system, the surviving fraction in assay [1] (500 nM) turned out to be 0.863 ± 0.099; in assay [1] (1000 nM) it was 0.716 ± 0.06; with XAV-939 (0.5 nM), 0.824 ± 0.32; with XAV-939 (1 nM), 0.996 ± 0.18; in the assay with XAV-939 (5 nM), 1.01 ± 0.2; with XAV-939 (10 nM), 1.07 ± 0.23. Also, the surviving fraction with XAV-939 (50 nM) is 0.983 ± 0.034; in the assay with XAV-939 (100 nM), 0.925 ± 0.15; in the assay with XAV-939 (500 nM) it was 0.895 ± 0.085; in the assay with XAV-939 (1000 nM), 0.855 ± 0.12.

In the case of HMT3552 BREAST, the surviving fraction in assay [1] (0.5 nM) came out at 0.902; in assay [1] (1 nM), 0.831; in assay [1] (5 nM) it was 0.845; in assay [1] (10 nM), 0.802; in assay [1] (50 nM), 0.827; in assay [1] (100 nM), 0.792. The surviving fraction in assay [1] (500 nM) amounted to 0.65; in assay [1] (1000 nM), 0.302; with XAV-939 (0.5 nM), 1.1; in the assay with XAV-939 (1 nM) it was 1.12; in the assay with XAV-939 (5 nM), 1.1; with XAV-939 (10 nM), 1.02. In addition, the surviving fraction with XAV-939 (50 nM) worked out at 1.18; with XAV-939 (100 nM), 1.1; with XAV-939 (500 nM) it was 1.07; in the assay with XAV-939 (1000 nM) it was 1.09.

Consider HS578T BREAST, for which the surviving fraction in assay [1] (0.5 nM) was determined as 1.07 ± 0.1; in assay [1] (1 nM), 1.15 ± 0.14; in assay [1] (5 nM), 1.03 ± 0.12; in assay [1] (10 nM), 0.956 ± 0.17; in assay [1] (50 nM), 0.985 ± 0.2; in assay [1] (100 nM), 1.09 ± 0.1. In addition, the surviving fraction was found to be 0.688 ± 0.19 in assay [1] (500 nM); 0.412 ± 0.091 in assay [1] (1000 nM); 1.16 ± 0.15 with XAV-939 (0.5 nM); 1.03 ± 0.2 in the assay with XAV-939 (1 nM); 1.14 ± 0.064 with XAV-939 (5 nM); 1.33 ± 0.062 with XAV-939 (10 nM). Further, the surviving fraction in the assay with XAV-939 (50 nM) was determined as 1.14 ± 0.13; with XAV-939 (100 nM), 1.21 ± 0.058; with XAV-939 (500 nM), 1.09 ± 0.069; in the assay with XAV-939 (1000 nM), 0.972 ± 0.016.

Take HMLE3 BREAST: the surviving fraction in assay [1] (0.5 nM) is 0.953 ± 0.036; in assay [1] (1 nM) it was 0.934 ± 0.063; in assay [1] (5 nM), 0.917 ± 0.084; in assay [1] (10 nM), 0.953 ± 0.065; in assay [1] (50 nM), 0.921 ± 0.069; in assay [1] (100 nM), 0.932 ± 0.052. In addition, the surviving fraction in assay [1] (500 nM) came to 0.793 ± 0.076; in assay [1] (1000 nM) it was 0.679 ± 0.035; with XAV-939 (0.5 nM) it was 0.921 ± 0.048; in the assay with XAV-939 (1 nM), 0.956 ± 0.028; in the assay with XAV-939 (5 nM) it was 0.97 ± 0.036; in the assay with XAV-939 (10 nM), 0.969 ± 0.059. Besides, the surviving fraction with XAV-939 (50 nM) worked out at 0.986 ± 0.047; in the assay with XAV-939 (100 nM), 0.984 ± 0.078; with XAV-939 (500 nM), 0.775 ± 0.054; with XAV-939 (1000 nM), 0.734 ± 0.037.
